# pIC50: −log10 of the molar value.
# Target: T1, Human thrombin (Homo sapiens, UniProt P00734)
# T1 construct: purchased Haematologic Technologies Inc
# Assay: Thrombin protease inhibition assay (chromogenic substrate S-2238)
# Type: biochemical
# Settings: 3 nM human thrombin, 125 μM S-2238, 10 min pre-incubation, RT
# Description: The thrombin activity reported herein (e.g., Table A) was obtained as follows. Human thrombin was obtained from Haematologic Technologies Inc. The chromogenic substrate S-2238 was obtained from DiaPharma. Thrombin was assayed in buffer containing 0.05 M Tris (pH 7.4), 0.015 M NaCl and 0.01% PEG-8000. The final concentration of enzyme used was 3 nM thrombin. The final concentration of substrate used was 125 μM S-2238 for thrombin. All assays were performed in 96-well microtiter plates at room temperature (RT). The enzyme and inhibitor were pre-incubated for 10 minutes then substrate was added and read at 405 nm in a SpectraMax Plus Spectrophotometer (Molecular Devices). Inhibitor IC50 values were determined by adding test compound as ten point, three-fold serial dilutions in buffer solution, as known in the art. The plate was read at 10 minutes after substrate addition. The IC50 was calculated by plotting the percent (%) inhibition against compound concentration and fitting the data to a constrained four parameter sigmoidal curve, as known in the art.
row,pIC50,Structure (SMILES)
1,≥ 7.00,"O=C(c1ccsc1)n1nc(C2CCOC2)nc1NCc1ccc(Cl)s1 (stereo not shown) [Entry 61, N-[(5-chlorothiophen-2-yl)methyl]-3-(oxolan-3-yl)-1-(thiophene-3-carbonyl)-1H-1,2,4-triazol-5-amine]"
2,≥ 7.00,"COc1ccccc1C(=O)n1nc(C2CCCCC2OC)nc1NCc1ccc(Cl)s1 (stereo not shown) [Entry 39, N-[(5-chlorothiophen-2-yl)methyl]-1-(2-methoxybenzoyl)-3-(2-methoxycyclohexyl)-1H-1,2,4-triazol-5-amine]"
3,≥ 7.00,"COc1ccccc1C(=O)n1nc(C2CCN(S(C)(=O)=O)CC2)nc1NCc1ccc(Cl)s1 [Entry 55, N-[(5-chlorothiophen-2-yl)methyl]-3-(1-methanesulfonylpiperidin-4-yl)-1-(2-methoxybenzoyl)-1H-1,2,4-triazol-5-amine]"
4,≥ 7.00,"O=C(c1ccsc1)n1nc(C2CCCO2)nc1NCc1ccc(Cl)s1 (stereo not shown) [Entry 59, N-[(5-chlorothiophen-2-yl)methyl]-3-(oxolan-2-yl)-1-(thiophene-3-carbonyl)-1H-1,2,4-triazol-5-amine]"
5,≥ 7.00,"Cc1ccccc1C(=O)n1nc(C2CCOCC2)nc1NCc1ccc(Cl)s1 [Entry 50, N-[(5-chlorothiophen-2-yl)methyl]-1-(2-methylbenzoyl)-3-(oxan-4-yl)-1H-1,2,4-triazol-5-amine]"
6,≤ 4.00,"CC(C)(C)OC(=O)N1CCCC1c1n[nH]c(NCc2ccc(Cl)s2)n1 (stereo not shown) [Entry 69, tert-butyl 2-(5-[(5-chlorothiophen-2-yl)methyl]amino-1H-1,2,4-triazol-3-yl)pyrrolidine-1-carboxylate]"
7,≥ 7.00,"COc1ccccc1C(=O)n1nc(C2CN(S(=O)(=O)C3CCCCC3)C2)nc1NCc1ccc(Cl)s1 [Entry 63, N-[(5-chlorothiophen-2-yl)methyl]-3-[1-(cyclohexanesulfonyl)azetidin-3-yl]-1-(2-methoxybenzoyl)-1H-1,2,4-triazol-5-amine]"
8,≥ 7.00,"COc1ccccc1C(=O)n1nc(C2CCN(C(=O)N3CCCCC3)CC2)nc1NCc1ccc(Cl)s1 [Entry 44, N-[(5-chlorothiophen-2-yl)methyl]-1-(2-methoxybenzoyl)-3-[1-(piperidine-1-carbonyl)piperidin-4-yl]-1H-1,2,4-triazol-5-amine]"
9,≥ 7.00,"COc1ccccc1C(=O)n1nc(C2CN(S(=O)(=O)N(C)C)C2)nc1NCc1ccc(Cl)s1 [Entry 19, 3-(5-[(5-chlorothiophen-2-yl)methyl]amino-1-(2-methoxybenzoyl)-1H-1,2,4-triazol-3-yl)-N,N-dimethylazetidine-1-sulfonamide]"
10,≤ 4.00,"O=C(c1ccccc1)n1nc(C2CNC2)nc1NCc1ccc(Cl)s1 [Entry 20, 3-(azetidin-3-yl)-1-benzoyl-N-[(5-chlorothiophen-2-yl)methyl]-1H-1,2,4-triazol-5-amine]"

# System: malignant breast tumors
# Assay: not given
# Settings: at 4 weeks, treated mice; cited from earlier work
Structure (SMILES),reduction in tumor volume [%],weight loss
CCCCCCOC(=O)NC(=N)c1ccc(NCc2nc3cc(C(=O)N(CCC(=O)OCC)c4ccccn4)ccc3n2C)cc1 [dabigatran etexilate],50,no weight loss

# Same assay, conditions: treated mice; cited from earlier work
row,Structure (SMILES),reduced tumor cells in the blood and liver micrometastases
1,CCCCCCOC(=O)NC(=N)c1ccc(NCc2nc3cc(C(=O)N(CCC(=O)OCC)c4ccccn4)ccc3n2C)cc1 [dabigatran etexilate],50-60%

# Source: patent US20160251341A1, “SUBSTITUTED TRIAZOLE COMPOUNDS AS SERINE PROTEASE INHIBITORS” (Verseon Corporation, priority 2015, published 2016)
